Results as given in ChEMBL document CHEMBL1201862, “PubChem BioAssay data set” (2004).
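Exposure lasted 48 hours, with cells grown in 96-well plates and compounds tested at five concentrations. The concentration for 50% growth inhibition is given as GI50.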 Activity calls are given as the source filed them. Cut-off read from the data, not from the text of the source: active = GI50 up to about 1.1 µM and inactive = higher.

What was measured:
Assay in all cases: NCI anticancer screen, dose series, 48 h
HCT-116 = test system: HCT-116
Malme-3M = test system: Malme-3M
NCI-H522 = test system: NCI-H522
SW-620 = test system: SW-620
SN12C = test system: SN12C
HT-29 = test system: HT-29
LOX IMVI = test system: LOX IMVI
SNB-19 = test system: SNB-19
OVCAR-3 = test system: OVCAR-3
HCC 2998 = test system: HCC 2998
OVCAR-5 = test system: OVCAR-5
LXFL 529 = test system: LXFL 529
DLD-1 = test system: DLD-1
SNB-75 = test system: SNB-75
U-251 = test system: U-251
SK-MEL-2 = test system: SK-MEL-2
TK-10 = test system: TK-10
DMS-114 = test system: DMS-114
RPMI-8226 = test system: RPMI-8226
HL-60 = test system: HL-60
NCI-H460 = test system: NCI-H460
OVCAR-8 = test system: OVCAR-8
RXF 393 = test system: RXF 393
M19-MEL = test system: M19-MEL
NCI-H226 = test system: NCI-H226
KM12 = test system: KM12
A498 = test system: A498
EKVX = test system: EKVX
CCRF-CEM = test system: CCRF-CEM
SK-OV-3 = test system: SK-OV-3
UACC-62 = test system: UACC-62
SF-268 = test system: SF-268
HOP-18 = test system: HOP-18
COLO 205 = test system: COLO 205
SR = test system: SR
KM-20L2 = test system: KM-20L2
ACHN = test system: ACHN
OVCAR-4 = test system: OVCAR-4
SK-MEL-5 = test system: SK-MEL-5
HOP-62 = test system: HOP-62
SF-539 = test system: SF-539
A549 = test system: A549
SNB-78 = test system: SNB-78
XF498 = test system: XF498
NCI-H23 = test system: NCI-H23
UO-31 = test system: UO-31
DMS-273 = test system: DMS-273
HCT-15 = test system: HCT-15
K562 = test system: K562
SF-295 = test system: SF-295
IGROV-1 = test system: IGROV-1
MOLT-4 = test system: MOLT-4
SK-MEL-28 = test system: SK-MEL-28
UACC-257 = test system: UACC-257
CAKI-1 = test system: CAKI-1
M14 = test system: M14
786-0 = test system: 786-0
RXF 631 = test system: RXF 631
HOP-92 = test system: HOP-92

With `Cc1c(Cl)ccc2c1NC(=O)C2(O)CC(=O)c1cccc2ccccc12` (centres undefined) the GI50 (HCT-116) was 69.5 µM (inactive), the GI50 (Malme-3M) was > 100 µM (inactive) and the GI50 (NCI-H522) was 43.8 µM (inactive). For the same compound, the GI50 (SW-620) was 38.9 µM (inactive), the GI50 (SN12C) was > 100 µM (inactive) and the GI50 (HT-29) was 43.4 µM (inactive). The GI50 (LOX IMVI) was 96.6 µM (inactive), the GI50 (SNB-19) was 90.8 µM (inactive) and the GI50 (OVCAR-3) was 78.3 µM (inactive). The GI50 (HCC 2998) was > 100 µM (inactive), the GI50 (OVCAR-5) was > 100 µM (inactive) and the GI50 (LXFL 529) was > 100 µM (inactive). The GI50 (DLD-1) was > 100 µM (inactive), the GI50 (SNB-75) was > 100 µM (inactive) and the GI50 (U-251) was 44.7 µM (inactive). For the same compound, the GI50 (SK-MEL-2) was > 100 µM (inactive), the GI50 (TK-10) was > 100 µM (inactive) and the GI50 (DMS-114) was 18.3 µM (inactive). For the same compound, the GI50 (RPMI-8226) was 28.9 µM (inactive), the GI50 (HL-60) was 13.3 µM (inactive) and the GI50 (NCI-H460) was 59.7 µM (inactive). The GI50 (OVCAR-8) was > 100 µM (inactive), the GI50 (RXF 393) was 99.3 µM (inactive) and the GI50 (M19-MEL) was 18.3 µM (inactive). The GI50 (NCI-H226) was > 100 µM (inactive), the GI50 (KM12) was 41.9 µM (inactive) and the GI50 (A498) was 69.5 µM (inactive). For the same compound, the GI50 (EKVX) was > 100 µM (inactive), the GI50 (CCRF-CEM) was 40.3 µM (inactive) and the GI50 (SK-OV-3) was > 100 µM (inactive). For the same compound, the GI50 (UACC-62) was 36.7 µM (inactive), the GI50 (SF-268) was > 100 µM (inactive) and the GI50 (HOP-18) was 77.3 µM (inactive). For the same compound, the GI50 (COLO 205) was > 100 µM (inactive), the GI50 (SR) was 24.1 µM (inactive) and the GI50 (KM-20L2) was 51.8 µM (inactive). The GI50 (ACHN) was > 100 µM (inactive), the GI50 (OVCAR-4) was 26.2 µM (inactive) and the GI50 (SK-MEL-5) was 34 µM (inactive). For the same compound, the GI50 (HOP-62) was > 100 µM (inactive), the GI50 (SF-539) was > 100 µM (inactive) and the GI50 (A549) was > 100 µM (inactive). The GI50 (SNB-78) was > 100 µM (inactive), the GI50 (XF498) was > 100 µM (inactive) and the GI50 (NCI-H23) was > 100 µM (inactive). The GI50 (UO-31) was > 100 µM (inactive), the GI50 (DMS-273) was 40.1 µM (inactive) and the GI50 (HCT-15) was 78.5 µM. For the same compound, the GI50 (K562) was 85.5 µM (inactive), the GI50 (SF-295) was > 100 µM (inactive) and the GI50 (IGROV-1) was > 100 µM (inactive). The GI50 (MOLT-4) was 35.2 µM (inactive), the GI50 (SK-MEL-28) was > 100 µM (inactive) and the GI50 (UACC-257) was 98.9 µM (inactive). For the same compound, the GI50 (CAKI-1) was 39.4 µM (inactive), the GI50 (M14) was > 100 µM (inactive) and the GI50 (786-0) was 73.6 µM (inactive).
For `O=C(COC(=O)c1cccc2c(=O)c3ccccc3[nH]c12)Nc1ccc(S(=O)(=O)Nc2ncccn2)cc1`, the GI50 (RXF 631) was 94 µM (inactive), the GI50 (HCT-116) was 39.6 µM (inactive) and the GI50 (Malme-3M) was 49.5 µM (inactive). For the same compound, the GI50 (NCI-H522) was 24.4 µM (inactive), the GI50 (SW-620) was 47.2 µM (inactive) and the GI50 (SN12C) was 59.6 µM (inactive). For the same compound, the GI50 (HT-29) was 31.8 µM (inactive), the GI50 (LOX IMVI) was 35.7 µM (inactive) and the GI50 (SNB-19) was 38.8 µM (inactive). For the same compound, the GI50 (OVCAR-3) was 22.6 µM (inactive), the GI50 (HCC 2998) was 38.8 µM (inactive) and the GI50 (OVCAR-5) was 39.3 µM (inactive). The GI50 (LXFL 529) was 47.5 µM (inactive), the GI50 (DLD-1) was > 100 µM (inactive) and the GI50 (SNB-75) was 30 µM (inactive). For the same compound, the GI50 (U-251) was 24.3 µM (inactive), the GI50 (TK-10) was 39.4 µM (inactive) and the GI50 (DMS-114) was 43.4 µM (inactive). For the same compound, the GI50 (RPMI-8226) was 51.4 µM (inactive), the GI50 (HL-60) was 30.9 µM (inactive) and the GI50 (NCI-H460) was > 100 µM (inactive). The GI50 (OVCAR-8) was 35.8 µM (inactive), the GI50 (RXF 393) was 43.3 µM (inactive) and the GI50 (M19-MEL) was 48.2 µM (inactive). For the same compound, the GI50 (NCI-H226) was > 100 µM (inactive), the GI50 (KM12) was 43.9 µM (inactive) and the GI50 (A498) was 95.5 µM (inactive). The GI50 (EKVX) was 64.1 µM (inactive), the GI50 (CCRF-CEM) was 27.5 µM (inactive) and the GI50 (SK-OV-3) was 39.5 µM (inactive). For the same compound, the GI50 (UACC-62) was 20 µM (inactive), the GI50 (SF-268) was 37 µM (inactive) and the GI50 (COLO 205) was 59.6 µM (inactive). For the same compound, the GI50 (SR) was 29 µM (inactive), the GI50 (KM-20L2) was 65.9 µM (inactive) and the GI50 (ACHN) was 36.8 µM (inactive). For the same compound, the GI50 (OVCAR-4) was 59.2 µM (inactive), the GI50 (SK-MEL-5) was 82 µM (inactive) and the GI50 (HOP-62) was 41.6 µM (inactive). The GI50 (SF-539) was 20.5 µM (inactive), the GI50 (A549) was > 100 µM (inactive) and the GI50 (SNB-78) was 30.6 µM (inactive). The GI50 (XF498) was 26.5 µM (inactive), the GI50 (NCI-H23) was 37.5 µM (inactive) and the GI50 (UO-31) was > 100 µM (inactive). For the same compound, the GI50 (DMS-273) was 27.5 µM (inactive), the GI50 (HCT-15) was greater than 100 µM and the GI50 (K562) was 38.5 µM (inactive). For the same compound, the GI50 (SF-295) was 58.9 µM (inactive), the GI50 (IGROV-1) was 39.8 µM (inactive) and the GI50 (MOLT-4) was 28.4 µM (inactive). The GI50 (SK-MEL-28) was 32.9 µM (inactive), the GI50 (UACC-257) was 66.1 µM (inactive) and the GI50 (HOP-92) was 15.6 µM (inactive). For the same compound, the GI50 (CAKI-1) was 79.3 µM (inactive), the GI50 (M14) was 93.1 µM (inactive) and the GI50 (786-0) was 42.2 µM (inactive).
